Assays:
Type in all cases: binding
[1] = target: kinases (KINOMEscan panel) (Homo sapiens, UniProt P07333); conditions: NEW KINOMEscan
[2] = target: T1, kinases (KINOMEscan panel) (Homo sapiens, UniProt P15735); conditions: kinase PHKG2; NEW KINOMEscan
T1 sequence (P15735 1-406): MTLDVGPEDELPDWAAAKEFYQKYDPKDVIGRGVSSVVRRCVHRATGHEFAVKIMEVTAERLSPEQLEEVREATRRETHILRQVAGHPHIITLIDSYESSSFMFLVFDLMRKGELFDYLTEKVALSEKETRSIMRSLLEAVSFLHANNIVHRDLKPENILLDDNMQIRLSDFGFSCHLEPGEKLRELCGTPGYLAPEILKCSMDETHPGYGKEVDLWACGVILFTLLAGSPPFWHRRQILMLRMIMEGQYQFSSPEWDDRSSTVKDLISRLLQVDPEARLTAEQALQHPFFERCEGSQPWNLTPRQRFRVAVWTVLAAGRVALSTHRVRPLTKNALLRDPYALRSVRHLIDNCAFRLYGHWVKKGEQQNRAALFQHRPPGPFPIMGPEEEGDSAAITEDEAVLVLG

[3] = target: kinases (KINOMEscan panel) (Homo sapiens, UniProt Q13705); conditions: kinase ACVR2B; NEW KINOMEscan
[4] = target: kinases (KINOMEscan panel) (Homo sapiens, UniProt Q15303); conditions: kinase ERBB4; NEW KINOMEscan
[5] = target: kinases (KINOMEscan panel) (Homo sapiens, UniProt Q13555); conditions: CAMK2G; NEW KINOMEscan
[6] = target: T2, kinases (KINOMEscan panel) (Homo sapiens, UniProt O14920)
T2 sequence (O14920 1-756): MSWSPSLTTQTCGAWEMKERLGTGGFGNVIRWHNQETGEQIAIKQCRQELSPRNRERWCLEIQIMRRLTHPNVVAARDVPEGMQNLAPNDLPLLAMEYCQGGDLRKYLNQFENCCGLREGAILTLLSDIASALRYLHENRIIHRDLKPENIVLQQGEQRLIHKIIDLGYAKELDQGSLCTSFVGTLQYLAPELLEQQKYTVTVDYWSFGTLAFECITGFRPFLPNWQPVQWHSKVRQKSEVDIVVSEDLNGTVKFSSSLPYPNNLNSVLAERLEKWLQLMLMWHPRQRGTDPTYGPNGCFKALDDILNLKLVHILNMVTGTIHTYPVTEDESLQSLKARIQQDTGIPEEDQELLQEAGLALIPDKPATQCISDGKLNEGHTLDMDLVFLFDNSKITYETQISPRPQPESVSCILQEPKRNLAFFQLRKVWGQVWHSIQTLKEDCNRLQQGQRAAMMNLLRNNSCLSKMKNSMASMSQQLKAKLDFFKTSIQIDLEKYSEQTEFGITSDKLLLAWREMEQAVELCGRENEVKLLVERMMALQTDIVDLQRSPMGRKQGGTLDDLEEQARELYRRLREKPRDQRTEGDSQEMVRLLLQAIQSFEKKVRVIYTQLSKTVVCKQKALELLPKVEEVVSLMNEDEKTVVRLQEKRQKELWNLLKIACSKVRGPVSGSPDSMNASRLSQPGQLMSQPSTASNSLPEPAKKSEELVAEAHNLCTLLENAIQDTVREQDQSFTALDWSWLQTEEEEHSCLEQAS

[7] = target: T3, kinases (KINOMEscan panel) (Homo sapiens, UniProt O14976); conditions: kinase GAK; NEW KINOMEscan
T3 sequence (O14976 1-1311): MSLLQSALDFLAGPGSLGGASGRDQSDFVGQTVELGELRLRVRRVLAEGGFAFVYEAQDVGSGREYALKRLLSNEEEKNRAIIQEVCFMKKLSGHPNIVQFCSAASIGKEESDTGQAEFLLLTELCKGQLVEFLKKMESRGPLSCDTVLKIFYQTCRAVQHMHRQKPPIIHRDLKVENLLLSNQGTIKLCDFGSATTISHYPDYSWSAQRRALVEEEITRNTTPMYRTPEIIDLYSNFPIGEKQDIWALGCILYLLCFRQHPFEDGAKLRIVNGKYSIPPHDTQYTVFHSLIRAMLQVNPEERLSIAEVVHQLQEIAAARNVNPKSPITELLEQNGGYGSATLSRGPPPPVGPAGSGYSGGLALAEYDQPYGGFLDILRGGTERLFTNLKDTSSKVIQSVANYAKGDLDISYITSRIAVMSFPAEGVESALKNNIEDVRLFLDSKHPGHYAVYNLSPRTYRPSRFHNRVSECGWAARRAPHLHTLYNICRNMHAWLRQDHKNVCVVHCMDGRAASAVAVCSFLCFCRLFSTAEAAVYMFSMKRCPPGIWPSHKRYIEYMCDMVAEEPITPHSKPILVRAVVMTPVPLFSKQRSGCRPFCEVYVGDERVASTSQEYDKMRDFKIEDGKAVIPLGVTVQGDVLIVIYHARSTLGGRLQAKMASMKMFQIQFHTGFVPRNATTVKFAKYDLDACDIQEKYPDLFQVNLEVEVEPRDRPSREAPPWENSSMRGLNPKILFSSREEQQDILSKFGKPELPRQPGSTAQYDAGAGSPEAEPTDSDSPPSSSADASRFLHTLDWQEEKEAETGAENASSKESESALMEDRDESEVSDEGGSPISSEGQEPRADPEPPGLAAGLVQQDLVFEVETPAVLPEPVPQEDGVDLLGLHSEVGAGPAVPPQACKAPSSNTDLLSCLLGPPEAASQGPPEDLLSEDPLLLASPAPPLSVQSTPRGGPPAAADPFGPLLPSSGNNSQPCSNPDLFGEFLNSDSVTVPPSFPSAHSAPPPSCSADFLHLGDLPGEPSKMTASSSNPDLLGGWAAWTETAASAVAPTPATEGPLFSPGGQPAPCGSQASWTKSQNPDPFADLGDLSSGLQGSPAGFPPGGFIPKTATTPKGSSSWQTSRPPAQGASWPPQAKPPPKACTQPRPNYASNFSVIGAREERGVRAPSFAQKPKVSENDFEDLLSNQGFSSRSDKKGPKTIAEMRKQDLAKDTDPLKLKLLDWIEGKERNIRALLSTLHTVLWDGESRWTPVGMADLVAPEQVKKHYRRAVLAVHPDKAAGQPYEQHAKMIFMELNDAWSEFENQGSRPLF

Sequence of kinases (KINOMEscan panel) (Homo sapiens, UniProt P07333) (P07333 20-972): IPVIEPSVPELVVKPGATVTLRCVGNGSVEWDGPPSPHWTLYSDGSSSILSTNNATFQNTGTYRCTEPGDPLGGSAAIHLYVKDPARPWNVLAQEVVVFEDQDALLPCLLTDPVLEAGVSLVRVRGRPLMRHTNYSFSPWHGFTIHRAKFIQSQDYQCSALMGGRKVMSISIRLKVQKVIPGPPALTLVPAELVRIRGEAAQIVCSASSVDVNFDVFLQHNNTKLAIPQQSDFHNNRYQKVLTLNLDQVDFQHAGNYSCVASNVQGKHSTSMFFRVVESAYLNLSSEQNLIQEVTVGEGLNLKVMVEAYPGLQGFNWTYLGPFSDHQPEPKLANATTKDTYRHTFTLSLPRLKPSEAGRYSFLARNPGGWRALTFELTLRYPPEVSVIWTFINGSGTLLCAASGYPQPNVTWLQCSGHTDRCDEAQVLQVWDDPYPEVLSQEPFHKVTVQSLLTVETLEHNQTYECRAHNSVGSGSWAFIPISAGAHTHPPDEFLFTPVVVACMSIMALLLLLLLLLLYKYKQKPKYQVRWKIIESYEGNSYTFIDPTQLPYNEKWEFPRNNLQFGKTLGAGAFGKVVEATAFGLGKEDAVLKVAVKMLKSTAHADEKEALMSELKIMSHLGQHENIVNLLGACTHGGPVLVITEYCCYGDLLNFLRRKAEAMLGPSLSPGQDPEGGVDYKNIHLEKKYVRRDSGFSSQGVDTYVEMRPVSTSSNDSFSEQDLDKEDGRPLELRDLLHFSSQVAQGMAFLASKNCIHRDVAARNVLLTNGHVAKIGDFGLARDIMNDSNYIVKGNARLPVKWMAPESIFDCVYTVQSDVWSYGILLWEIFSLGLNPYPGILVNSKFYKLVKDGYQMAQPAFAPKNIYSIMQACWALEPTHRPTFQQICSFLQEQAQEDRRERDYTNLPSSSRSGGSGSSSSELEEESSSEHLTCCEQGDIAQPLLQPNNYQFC
Sequence of kinases (KINOMEscan panel) (Homo sapiens, UniProt Q15303) (Q15303 26-1308): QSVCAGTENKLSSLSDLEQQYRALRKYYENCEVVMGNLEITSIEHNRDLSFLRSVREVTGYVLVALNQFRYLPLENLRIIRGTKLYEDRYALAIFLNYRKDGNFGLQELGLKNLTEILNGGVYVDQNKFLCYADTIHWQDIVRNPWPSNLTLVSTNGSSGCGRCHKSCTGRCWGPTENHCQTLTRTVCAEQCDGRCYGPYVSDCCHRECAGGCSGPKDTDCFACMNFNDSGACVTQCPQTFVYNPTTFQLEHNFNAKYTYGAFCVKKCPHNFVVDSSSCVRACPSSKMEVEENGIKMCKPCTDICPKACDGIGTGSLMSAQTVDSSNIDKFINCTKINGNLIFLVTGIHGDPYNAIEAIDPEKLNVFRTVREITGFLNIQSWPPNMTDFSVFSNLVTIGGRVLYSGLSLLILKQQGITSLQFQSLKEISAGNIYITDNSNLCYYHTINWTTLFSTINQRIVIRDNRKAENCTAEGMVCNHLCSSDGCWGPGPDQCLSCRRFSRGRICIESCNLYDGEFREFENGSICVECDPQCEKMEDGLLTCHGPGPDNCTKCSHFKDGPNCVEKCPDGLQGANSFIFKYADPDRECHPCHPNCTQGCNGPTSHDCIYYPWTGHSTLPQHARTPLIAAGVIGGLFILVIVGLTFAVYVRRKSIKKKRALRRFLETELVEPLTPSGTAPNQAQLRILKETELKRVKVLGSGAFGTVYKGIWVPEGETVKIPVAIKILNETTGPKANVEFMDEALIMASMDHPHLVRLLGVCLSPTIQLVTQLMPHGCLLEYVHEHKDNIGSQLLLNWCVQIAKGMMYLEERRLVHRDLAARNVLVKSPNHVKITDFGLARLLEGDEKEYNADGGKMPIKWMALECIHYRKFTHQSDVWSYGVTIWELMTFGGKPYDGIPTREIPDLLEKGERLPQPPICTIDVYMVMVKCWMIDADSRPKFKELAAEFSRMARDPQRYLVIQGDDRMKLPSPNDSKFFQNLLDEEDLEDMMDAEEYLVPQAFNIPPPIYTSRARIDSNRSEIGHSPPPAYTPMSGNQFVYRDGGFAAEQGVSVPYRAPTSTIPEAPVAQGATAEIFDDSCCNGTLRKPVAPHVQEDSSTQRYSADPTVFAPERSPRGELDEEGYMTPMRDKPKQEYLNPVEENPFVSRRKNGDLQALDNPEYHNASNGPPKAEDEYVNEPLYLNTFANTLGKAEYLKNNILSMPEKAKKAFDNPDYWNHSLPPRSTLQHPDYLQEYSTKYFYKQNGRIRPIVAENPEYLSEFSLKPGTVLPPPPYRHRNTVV
Sequence of kinases (KINOMEscan panel) (Homo sapiens, UniProt Q13705) (Q13705 19-512): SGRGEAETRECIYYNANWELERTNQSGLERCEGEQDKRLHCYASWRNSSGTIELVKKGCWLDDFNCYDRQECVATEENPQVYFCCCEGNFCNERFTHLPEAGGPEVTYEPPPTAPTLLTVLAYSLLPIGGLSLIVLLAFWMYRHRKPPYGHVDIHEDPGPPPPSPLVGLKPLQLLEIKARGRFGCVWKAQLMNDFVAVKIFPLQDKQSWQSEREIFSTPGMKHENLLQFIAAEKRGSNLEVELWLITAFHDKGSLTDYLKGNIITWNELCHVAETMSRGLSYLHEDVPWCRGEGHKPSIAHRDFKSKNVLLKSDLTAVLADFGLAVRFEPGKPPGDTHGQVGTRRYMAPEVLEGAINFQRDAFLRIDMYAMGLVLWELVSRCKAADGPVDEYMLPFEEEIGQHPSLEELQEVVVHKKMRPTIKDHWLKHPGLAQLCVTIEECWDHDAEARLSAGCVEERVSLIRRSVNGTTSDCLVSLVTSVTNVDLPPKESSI
Sequence of kinases (KINOMEscan panel) (Homo sapiens, UniProt Q13555) (Q13555 whole entry): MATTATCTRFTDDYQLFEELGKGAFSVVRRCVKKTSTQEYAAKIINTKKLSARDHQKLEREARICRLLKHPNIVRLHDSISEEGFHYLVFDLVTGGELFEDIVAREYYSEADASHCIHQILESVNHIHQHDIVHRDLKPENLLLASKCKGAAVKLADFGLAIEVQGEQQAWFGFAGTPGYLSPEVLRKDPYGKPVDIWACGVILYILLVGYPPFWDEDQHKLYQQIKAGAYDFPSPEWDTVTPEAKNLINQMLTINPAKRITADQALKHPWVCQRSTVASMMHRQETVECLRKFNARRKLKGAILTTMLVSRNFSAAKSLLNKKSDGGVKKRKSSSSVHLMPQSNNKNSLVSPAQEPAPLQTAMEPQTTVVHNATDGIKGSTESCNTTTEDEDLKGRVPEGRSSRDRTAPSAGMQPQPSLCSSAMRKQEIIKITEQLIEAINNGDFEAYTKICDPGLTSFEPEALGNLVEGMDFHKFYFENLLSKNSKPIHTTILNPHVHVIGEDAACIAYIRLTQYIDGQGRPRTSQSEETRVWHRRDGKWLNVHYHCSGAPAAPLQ

Row | SMILES | KINOMEscan CSF1R [1] | KINOMEscan CSF1R-autoinhibited [1] | KINOMEscan PHKG2 [2] | KINOMEscan ACVR2B [3] | KINOMEscan ERBB4 [4] | KINOMEscan CAMK2G [5] | KINOMEscan IKBKB/IKK-beta [6] | KINOMEscan GAK [7]
1 | Cc1cccc(-c2nc(N(C)c3ccc4ncsc4c3)c3ccccc3n2)n1 [NK-161] | 18 | 26 | 0 | 22 | 0 | 0 | 25 | 0
2 | Cc1cccc(-c2nc(Nc3ccc4nn(C)cc4c3)c3ccccc3n2)n1 [NK167] | 16 | 0 | 0 | 0 | 0 | 0 | 5 | 0

— paper PMC9851200, “Multiparameter phenotypic screening for endogenous TFEB and TFE3 translocation identifies novel chemical series modulating lysosome function” (Autophagy, 2022)
